# Measured values taken from patent US20030114673A1, “2-AMINO-5,6-DIHALO-3,4-DIHYDROQUINAZOLINES WITH BLOOD PLATELET REDUCING PROPERTIES” (priority 2002, published 2003).
# Counter-ions that a name gives are not always drawn.
# Tests used:
# [1] = Solubility in water; format: physicochemical; details: salt form as named
# Text: 2-Amino-5,6-dichloro-3,4-dihydroquinazoline (compound (E) wherein X and Y are both Cl) is the preferred compound for use in reducing the platelet count in patients and is preferably provided as the hydrobromide salt which is water soluble.
# [2] = system: circulating platelet levels; test: Daily intraperitoneal injection in mice, circulating platelet levels and safety; format: in vivo
# Method: Administration of 100 μg/day of the preferred compound was sufficient to decrease platelet counts within 24-48 hours stabilizing to 50% of normal by day 5.
# [3] = system: megakaryocytic lineage; test: Inhibition of megakaryocytic endoreplication; format: cell-based
# [4] = system: CD15+ myeloid lineage; test: Effect on the CD15+ myeloid lineage in vitro; format: cell-based
# [5] = system: platelet aggregation; test: Platelet aggregation; format: cell-based; details: even at high concentrations (10 μg/mL)
# [6] = Cardiovascular screening and side effect profile of the compound; format: in vivo
# [7] = system: platelet count; test: Platelet reducing properties; details: in vivo
# [8] = In vitro metabolism of Anagrelide in rat liver microsomes; format: in vitro ADME
# Text: (§1) Metabolism of Anagrelide was examined in a number of in vitro systems including rat and human liver microsomes, human whole blood, human bone marrow cells and rat intestinal mucosa. […] It appears that in vivo metabolism occurs by a route that cannot be readily mimicked in vitro. It is hypothesized that the first step of in vivo metabolism involves hydroxylation of the carbon α to the carbonyl followed by amide hydrolysis and loss of the elements of glyoxylic acid.
# [9] = In vitro metabolism of Anagrelide in human liver microsomes; format: in vitro ADME
# Text: as §1
# [10] = In vitro metabolism of Anagrelide in human whole blood; format: in vitro ADME
# Text: as §1
# [11] = In vitro metabolism of Anagrelide in human bone marrow cells; format: in vitro ADME
# Text: as §1
# [12] = In vitro metabolism of Anagrelide in rat intestinal mucosa; format: in vitro ADME
# Text: as §1
# [13] = set-up: species or system Rhesus Monkeys; details: rhesus monkey, in vivo
# Text: In a recent pharmacokinetic and excretion study of [^14C]
# [14] = clinical use of Anagrelide; cited from earlier work
# [15] = cited from earlier work
smiles,measurement,setting,value
"Br.NC1=Nc2ccc(Cl)c(Cl)c2CN1 [2-amino-5,6-dichloro-3,4-dihydroquinazoline hydrobromide]",solubility in water,[1],water soluble
same,circulating platelet levels,"[2]; 6- to 8-month old mice, daily intraperitoneal injection",dose-dependent decrease
same,time to decrease in platelet counts,"[2]; mice, 100 μg/day intraperitoneal",24 to 48 h
same,platelet counts stabilized level,"[2]; mice, 100 μg/day intraperitoneal, by day 5",50 % of normal
same,apparent signs of toxicity or haemorrhaging,"[2]; mice, high doses (300 μg)","did not alter white blood cell counts, bleeding time or lead to any apparent signs of toxicity or haemorrhaging"
same,inhibition of megakaryocytic endoreplication,[3],profound inhibition
same,dose for inhibition of megakaryocytic endoreplication relative to doses reported for Anagrelide,[3]; compared with those reported for Anagrelide,500 times less
same,effect on the CD15+ myeloid lineage,[4],no effect
same,inhibition of platelet aggregation,[5],did not inhibit platelet aggregation
"NC1=Nc2ccc(Cl)c(Cl)c2CN1 [2-amino-5,6-dichloro-3,4-dihydroquinazoline]",antihypertensive activity,[6]; cardiovascular screening,Only very mild antihypertensive activity
same,side effects of inotropy and haemorrhaging associated with Anagrelide,[6]; in vivo,without the side effects of inotropy and haemorrhaging
same,reduction of platelet counts,[7],active molecule for causing reduction of platelet counts
O=C1CN2Cc3c(ccc(Cl)c3Cl)N=C2N1 [Anagrelide hydrochloride],solubility in water,[1],nearly insoluble in water
"O=C1CN2Cc3c(ccc(Cl)c3Cl)N=C2N1 [Anagrelide, 6,7-dichloro-1,5-dihydroimidazo-[2,1-b]-quinazolin-2(3H)-one]",metabolism in vitro,[8],completely resistant to metabolism
same,metabolism in vitro,[9],completely resistant to metabolism
same,metabolism in vitro,[10],completely resistant to metabolism
same,metabolism in vitro,[11],completely resistant to metabolism
same,metabolism in vitro,[12],completely resistant to metabolism
same,"detection of the human metabolite 2-amino-5,6-dichloro-3,4-dihydroquinazoline",[13],"no human metabolite (2-amino-5,6-dichloro-3,4-dihydroquinazoline) was detected"
same,congestive heart failure (cardiovascular side effect incidence),[14],1.5%
same,palpitations (cardiovascular side effect incidence),[14],26.1%
same,tachycardia (cardiovascular side effect incidence),[14],7.5%
same,vasodilation (cardiovascular side effect incidence),[14],< 5%
same,Anagrelide dose excreted as unchanged drug in the urine,[15]; human subjects,< 1%
same,peak plasma concentrations of the parent drug,[15]; human subjects,6 ng/mL
same,urinary radioactivity accounted for by a minimum of four to five metabolites,"[15]; human, in vivo",over 75%
